Key:
[1] = test system: trigeminovascular Aδ-nociceptors, high threshold (HT) neurons, C-fiber and wide dynamic range (WDR) neurons; details: rat, in vivo
[2] = test system: C-fibers in the trigeminal ganglion; details: rat, in vivo
[3] = test system: Aδ-fibers in the trigeminal ganglion; details: rat, in vivo
[4] = test system: neurons in the trigeminal ganglion; details: rat, in vivo
[5] = set-up: species or system human; details: in vivo
[6] = set-up: species or system human; details: in vivo; for Development of post-traumatic syndrome after treatment within the first day after blast injury: sc

For fremanezumab, which “Activation of C-fiber and wide dynamic range (WDR) neurons” value [1] is on record?
The value was “not”.

What about the “Activation of trigeminovascular Aδ-nociceptors and high threshold (HT) neurons” value [1] of the same molecule?
The value was “blocked the activation”.

What does the source list for onabotulinumtoxinA [BoNT-A]?
Baseline firing rate, C-fibers [2]: 0.7 spikes/sec; Effect on response to CSD in unmyelinated C-fibers [2]: inhibited the response to CSD; Baseline firing rate, Aδ-neurons [3]: 0.7 spikes/sec; Effect on response to CSD in Aδ-neurons [3]: no significant difference; Baseline firing rate prior to CSD [4]: 0.7 Hz; Outcome after treatment following 1 month of symptoms after head injury [5]: headaches are lessened in severity and frequency, they experience improved sleep and improved cognition; Outcome after treatment promptly after head injury, before onset of symptoms [5]: continues to do well; Outcome after treatment once symptoms had developed after blast injury [6]: headaches resolve a month after their treatment with decreased photophobia, dizziness, tinnitus and insomnia; Development of post-traumatic syndrome after treatment within the first day after blast injury [6]: do not develop any features of a post-traumatic syndrome

B1: Galcanezumab (antibody, chains of the INN, looked up, V domains shown)
VH: QVQLVQSGAEVKKPGSSVKVSCKASGYTFGNYWMQWVRQAPGQGLEWMGAIYEGTGKTVYIQKFADRVTITADKSTSTAYMELSSLRSEDTAVYYCARLSDYVSGFGYWGQGTTVTVSS
VL: DIQMTQSPSSLSASVGDRVTITCRASKDISKYLNWYQQKPGKAPKLLIYYTSGYHSGVPSRFSGSGSGTDFTLTISSLQPEDFATYYCQQGDALPPTFGGGTKVEIK
Which “Development of post-traumatic syndrome after treatment within the first day after blast injury” value [6] does the source give for B1 here?
The value was “do not develop any features of a post-traumatic syndrome”.

Reference: US20210128724A1 (priority 2019, published 2021)
